Measurements from article PMC6946680, “Modulation of brain cation-Cl^− cotransport via the SPAK kinase inhibitor ZT-1a” (Nature Communications, 2020).
Several values for one entry are separate records, joined by “and”; a condition that tells them apart may be missing. Identical values can stand only once. Entries after “also recorded” stand apart in the source; their conditions may differ.

Experiments:
mice = conditions: mouse, in vivo
Procedure: Post-stroke administration of Closantel in mice reduced ischemic cerebral infarction size and brain swelling in a dose-dependent manner. However, we detected Closantel toxicity in mice at higher doses (~25 mg/kg), consistent with reported adverse effects in humans, including weakness, visual impairment, and blindness[72],[73]. The in vitro nanomolar-potency pan-WNK-kinase inhibitor WNK463 was developed as an antihypertensive drug[74]. […] Although the causes of these adverse effects remain unclear, they also discouraged efficacy testing of WNK463 at higher doses.

[1] = system: mouse model of ischemic stroke (tMCAO); test: Infarct volume and hemispheric swelling (TTC) 24 h after tMCAO; assay type: in vivo
human fibroblast cells = test: Cell volume measurement (calcein-AM) under hyperosmotic stress, human fibroblasts; conditions: hypertonic 515 mOsm; BMT or ZT-1a
HEK-293 cells = test: 86Rb+ uptake assay in empty-vector-transfected HEK-293 cells; assay type: cell-based, human; set-up: key: 86Rb+ uptake in CPM per mg protein; conditions: Fig 3b, Empty V + Bum (0.1 mM), ouabain, replicates, listed as Bum
Procedure: (§1) Thirty-six hours post transfection, cells were exposed for 30 min to either control isotonic conditions or hypotonic low [Cl^−] conditions (to activate the SPAK/OSR1 pathway), and then treated for an additional 30 min in the same conditions with the indicated ZT-1a concentrations in the presence of 1 mM ouabain and 0.1 mM bumetanide. Ten-minute ^86Rb^+ uptake values were quantified by scintillation counting, normalized per mg protein for each condition, and plotted for both isotonic and hypotonic conditions. ***p < 0.001; **p < 0.01; *p < 0.05; ns—nonsignificant [by one-way ANOVA with post hoc testing (n = 6, error bars represent the mean ± SEM)]. b ^86Rb^+ uptake assays in the presence of ZT-1a measure transport activity of NKCC1. […] Thirty-six hours post transfection, cells were exposed for 30 min to either control isotonic conditions or hypotonic low [Cl^−] conditions (to activate the SPAK/OSR1 pathway), and then treated in the same conditions for an additional 30 min with 10 µM ZT-1a or 0.1 mM bumetanide (Bum) in the presence of 1 mM ouabain (Na^+/K^+-ATPase inhibitor). ^86Rb^+ uptake was allowed to proceed for 10 min and was then quantified by scintillation counting. ^86Rb^+ uptake CPMs were normalized per mg protein and plotted for both isotonic and hypotonic conditions. […] Thirty-six hours post transfection, cells were exposed for 30 min to either control isotonic conditions or hypotonic low [Cl^−] conditions (to activate the SPAK/OSR1 pathway), and then treated for an additional 30 min in the same conditions with the indicated ZT-1a concentrations in the presence of 1 mM ouabain. Ten-minute ^86Rb^+ uptake values were quantified by scintillation counting, normalized per mg protein for each condition, and plotted for both isotonic and hypotonic conditions. ***p < 0.001; **p < 0.01; *p < 0.05; ns—nonsignificant [by one-way ANOVA with post hoc testing (n = 6, error bars represent the mean ± SEM)].
(§2) This stimulating medium was then removed and replaced with isotonic medium containing inhibitors plus 2 µCi/ml ^86Rb^+. After incubation for 10 min at 37 °C, cells were rapidly washed three times with the respective ice-cold nonradioactive medium. Washed cells were lysed in 300 µl of ice-cold lysis buffer and ^86Rb^+ uptake was quantitated by liquid scintillation counting (PerkinElmer).

NKCC1 = test: 86Rb+ uptake assay for NKCC1 activity in HEK-293 cells; assay type: cell-based; set-up: key to 86Rb+ uptake: 86Rb+ uptake in CPM per mg protein; conditions: for 86Rb+ uptake: Fig 3b, NKCC1 + Bum (0.1 mM), replicates, listed as Bum
Procedure: as §1, §2

[2] = system: mouse primary cortical neurons; test: Cell volume measurement (calcein-AM) under hyperosmotic stress, primary cortical neurons

## CC(C)(C)NC(=O)c1cncn1C1CCN(c2ccc(-c3nnc(C(F)(F)F)o3)cn2)CC1 [WNK463]
mice
  adverse effects in mice: ataxia and breathing difficulties
[1]; Fig 9b, group WNK463, individual mice
  Infarct volume (mm3): 59.9 mm3 and 47.6 mm3 and 101.01 mm3 and 100.21 mm3
[1]; Fig 9c, group WNK463, individual mice
  Hemisphere swelling (%): 22.63% and 14.43% and 26.7% and 16.53%
[1]; WNK463 2.5 mg/kg, 24 h post reperfusion, 2.5 mg/kg
  infarct volume and hemispheric swelling (neuroprotection): reduced neither infarct volume nor hemispheric swelling; also recorded: not neuroprotective

## CCCCNc1cc(C(=O)O)cc(S(N)(=O)=O)c1Oc1ccccc1 [bumetanide, reference compound]
Human fibroblast cells
  regulatory volume increase (RVI) in human fibroblast cells: absence of RVI
HEK-293 cells; Hypotonic low Cl-
  86Rb+ uptake: 1107.6 and 1237.8 and 1137.4 and 1021.4 and 1200.9 and 1076.2
HEK-293 cells; Isotonic control
  86Rb+ uptake: 803.5 and 942.1 and 914.8 and 786.4 and 978.4 and 901.5
NKCC1; 0.1 mM bumetanide, isotonic or hypotonic low Cl−
  K+ flux of cells transfected with empty vector or NKCC1 wt cDNA: significantly decreased K^+ flux
NKCC1; Hypotonic low Cl-
  86Rb+ uptake: 9502.3 and 11310.4 and 9641.4 and 10421.5 and 10765.4 and 9047.7
NKCC1; Isotonic control
  86Rb+ uptake: 1674.6 and 1506.3 and 1758.1 and 1840.4 and 1694.7 and 1729.5
[2]; Fig 5b trace, Time 1.00403
  Cell water (relative change): 0.9843 relative change
[2]; Fig 5b trace, Time 2.00427
  Cell water (relative change): 1.007 relative change
[2]; Fig 5b trace, Time 3.00425
  Cell water (relative change): 1.002 relative change
[2]; Fig 5b trace, Time 4.00423
  Cell water (relative change): 1.004 relative change
[2]; Fig 5b trace, Time 5.0042
  Cell water (relative change): 1.002 relative change
[2]; Fig 5b trace, Time 6.00445
  Cell water (relative change): 0.7352 relative change
[2]; Fig 5b trace, Time 7.00442
  Cell water (relative change): 0.6913 relative change
[2]; Fig 5b trace, Time 8.00435
  Cell water (relative change): 0.6745 relative change
[2]; Fig 5b trace, Time 9.00452
  Cell water (relative change): 0.6038 relative change
[2]; Fig 5b trace, Time 10.0046
  Cell water (relative change): 0.5839 relative change
[2]; Fig 5b trace, Time 11.0045
  Cell water (relative change): 0.5893 relative change
[2]; Fig 5b trace, Time 12.0045
  Cell water (relative change): 0.5422 relative change
[2]; Fig 5b trace, Time 13.0045
  Cell water (relative change): 0.523 relative change
[2]; Fig 5b trace, Time 14.0045
  Cell water (relative change): 0.4977 relative change
[2]; Fig 5b trace, Time 15.0047
  Cell water (relative change): 0.5231 relative change
[2]; Fig 5b trace, Time 16.0047
  Cell water (relative change): 0.4947 relative change
[2]; Fig 5b trace, Time 17.0047
  Cell water (relative change): 0.4924 relative change
[2]; Fig 5b trace, Time 18.0047
  Cell water (relative change): 0.4545 relative change
[2]; Fig 5b trace, Time 19.0049
  Cell water (relative change): 0.4799 relative change
[2]; Fig 5b trace, Time 20.0049
  Cell water (relative change): 0.4586 relative change
[2]; Fig 5b trace, Time 21.0048
  Cell water (relative change): 0.4488 relative change
[2]; Fig 5b trace, Time 22.0048
  Cell water (relative change): 0.4846 relative change
[2]; Fig 5b trace, Time 23.005
  Cell water (relative change): 0.4766 relative change
[2]; Fig 5b trace, Time 24.0048
  Cell water (relative change): 0.4819 relative change
[2]; Fig 5b trace, Time 25.005
  Cell water (relative change): 0.4751 relative change
[2]; Fig 5b trace, Time 26.0053
  Cell water (relative change): 0.6008 relative change
[2]; Fig 5b trace, Time 27.005
  Cell water (relative change): 0.6725 relative change
[2]; Fig 5b trace, Time 28.005
  Cell water (relative change): 0.7341 relative change
[2]; Fig 5b trace, Time 29.0051
  Cell water (relative change): 0.8379 relative change
[2]; Fig 5b trace, Time 30.005
  Cell water (relative change): 0.9275 relative change
[2]; Fig 5b trace, Time 31.005
  Cell water (relative change): 0.981 relative change
[2]; Fig 5b trace, Time 32.005
  Cell water (relative change): 1.048 relative change
[2]; Fig 5b trace, Time 33.0052
  Cell water (relative change): 1.114 relative change
[2]; Fig 5b trace, Time 34.0052
  Cell water (relative change): 1.157 relative change
[2]; Fig 5b trace, Time 35.0052
  Cell water (relative change): 1.203 relative change
[2]; Time 1.0036
  Cell water (relative change): 0.9714
[2]; Time 2.0038
  Cell water (relative change): 1.0042
[2]; Time 3.0038
  Cell water (relative change): 1.0139
[2]; Time 4.0037
  Cell water (relative change): 0.9906
[2]; Time 5.0037
  Cell water (relative change): 1.0199
[2]; Time 6.0037
  Cell water (relative change): 0.4476
[2]; Time 7.0039
  Cell water (relative change): 0.4233
[2]; Time 8.0040
  Cell water (relative change): 0.4625
[2]; Time 9.0042
  Cell water (relative change): 0.4683
[2]; Time 10.0039
  Cell water (relative change): 0.4401
[2]; Time 11.0039
  Cell water (relative change): 0.4457
[2]; Time 12.0039
  Cell water (relative change): 0.4507
[2]; Time 13.0041
  Cell water (relative change): 0.4223
[2]; Time 14.0041
  Cell water (relative change): 0.4334
[2]; Time 15.0040
  Cell water (relative change): 0.4490
[2]; Time 16.0040
  Cell water (relative change): 0.4184
[2]; Time 17.0040
  Cell water (relative change): 0.3961
[2]; Time 18.0045
  Cell water (relative change): 0.4241
[2]; Time 19.0042
  Cell water (relative change): 0.4174
[2]; Time 20.0042
  Cell water (relative change): 0.4139
[2]; Time 21.0042
  Cell water (relative change): 0.4233
[2]; Time 22.0041
  Cell water (relative change): 0.4177
[2]; Time 23.0044
  Cell water (relative change): 0.4195
[2]; Time 24.0044
  Cell water (relative change): 0.4281
[2]; Time 25.0043
  Cell water (relative change): 0.4058
[2]; Time 26.0043
  Cell water (relative change): 0.5463
[2]; Time 27.0043
  Cell water (relative change): 0.6294
[2]; Time 28.0045
  Cell water (relative change): 0.7254
[2]; Time 29.0044
  Cell water (relative change): 0.8393
[2]; Time 30.0044
  Cell water (relative change): 0.8966
[2]; Time 31.0046
  Cell water (relative change): 1.0008
[2]; Time 32.0046
  Cell water (relative change): 1.0678
[2]; Time 33.0046
  Cell water (relative change): 1.1243
[2]; Time 34.0045
  Cell water (relative change): 1.1834
[2]; Time 35.0045
  Cell water (relative change): 1.2456
[2]; hyperosmotic stress 370 mOsm, ZT-1a 3 μM, BMT 10 μM
  regulatory volume increase (RVI) response of primary cortical neurons: no RVI response
[2]; hypertonic 370 mOsm/kg H2O, earlier manuscript version quoted in peer-review file
  cell shrinkage of primary cortical neurons: 86%
[2]; hypertonic stress, earlier manuscript version quoted in peer-review file
  initial rate of cell shrinkage: 45 ± 4 % vol/min
[2]; hypertonicity-mediated osmotic shrinkage, three cultures
  neurons exhibiting RVI / cells analysed: 0/46
